# According to US20220053762A1, “HERBICIDAL COMPOSITIONS” (Bayer Aktiengesellschaft, priority 2018, published 2022):
# System: harmful plant species
# Assay: Specific trial examples: binary compositions applied by the post-emergence method, synergistic effect according to Colby (Tables 3.1-3.2)
# Format: in vivo
# Protocol: When the observed efficacies already exceed the formal sum total of the values of the tests with individual applications, they also exceed the expected value according to Colby, which is calculated using the formula below and is likewise regarded as an indication of synergism (cf. S. R. Colby; in Weeds 15 (1967) p. 20 to 22):
# Seeds or rhizome pieces of mono- and dicotyledonous weeds are placed in sandy loam in pots, covered with soil and grown in a greenhouse under good growth conditions (temperature, air humidity, water supply). Three weeks after sowing, the test plants are treated at the three-leaf stage with the compositions according to the invention. The compositions according to the invention formulated as spray powders or as emulsion concentrates are sprayed onto the green plant parts in various dosages with an application rate of 300 to 800 l/ha of water (equivalent).
# The sum total of the effects of the individual applications is reported under E^A; Expected values according to Colby are each reported under E^C.
# The rating period is reported in days after application (DAT).
compound,measurement,setting,value
"C=C[C@]1(C(=O)N[C@H]2CO[C@@H](C(=O)NS(=O)(=O)C(F)(F)F)C2)CC(c2cc(F)cc(F)c2)=NO1 (relative stereo) [Compound A1, (5S)-3-(3,5-difluorophenyl)-N-[rel-(3R,5R)-5-(trifluoromethylsulfonylcarbamoyl)tetrahydrofuran-3-yl]-5-vinyl-4H-isoxazole-5-carboxamide]",Herbicidal action 28 DAT against Lolium rigidum (resistant biotype),1.67 g a.i./ha,0%
same,Herbicidal action 28 DAT against Lolium rigidum (sensitive biotype),1.67 g a.i./ha,0%
same,Herbicidal action 28 DAT against Alopecurus myosuroides (sensitive biotype),5 g a.i./ha,0%
same,Herbicidal action 28 DAT against Avena fatua,5 g a.i./ha,50%
same,Herbicidal action 28 DAT against Bromus sterilis,5 g a.i./ha,0%
same,Herbicidal action 28 DAT against Centaurea cyanus,5 g a.i./ha,20%
same,Herbicidal action 28 DAT against Euphorbia heterophylla,5 g a.i./ha,0%
same,Herbicidal action 28 DAT against Galium aparine,5 g a.i./ha,0%
same,Herbicidal action 28 DAT against Hordeum murinum,5 g a.i./ha,0%
same,Herbicidal action 28 DAT against Ipomoea purpurea,5 g a.i./ha,0%
same,Herbicidal action 28 DAT against Lamium purpureum,5 g a.i./ha,20%
same,Herbicidal action 28 DAT against Lolium rigidum (resistant biotype),5 g a.i./ha,0%
same,Herbicidal action 28 DAT against Lolium rigidum (sensitive biotype),5 g a.i./ha,0%
same,Herbicidal action 28 DAT against Phalaris minor,5 g a.i./ha,0%
same,Herbicidal action 28 DAT against Polygonum convolvulus,5 g a.i./ha,0%
same,Herbicidal action 28 DAT against Polygonum convulvulus,5 g a.i./ha,50%
same,Herbicidal action 28 DAT against Raphanus raphanistrum,5 g a.i./ha,80%
same,Herbicidal action 28 DAT against Stellaria media,5 g a.i./ha,0%
same,Herbicidal action 28 DAT against Veronica hederifolia,5 g a.i./ha,0%
same,Herbicidal action 28 DAT against Viola tricolor,5 g a.i./ha,0%
same,Herbicidal action 28 DAT against Alopecurus myosuroides (resistant biotype),15 g a.i./ha,60%
same,Herbicidal action 28 DAT against Alopecurus myosuroides (sensitive biotype),15 g a.i./ha,60%
same,Herbicidal action 28 DAT against Centaurea cyanus,15 g a.i./ha,30%
same,Herbicidal action 28 DAT against Euphorbia heterophylla,15 g a.i./ha,10%
same,Herbicidal action 28 DAT against Galium aparine,15 g a.i./ha,30%
same,Herbicidal action 28 DAT against Ipomoea purpurea,15 g a.i./ha,0%
same,Herbicidal action 28 DAT against Lamium purpureum,15 g a.i./ha,50%
same,Herbicidal action 28 DAT against Lolium rigidum (resistant biotype),15 g a.i./ha,0%
same,Herbicidal action 28 DAT against Lolium rigidum (sensitive biotype),15 g a.i./ha,0%
same,Herbicidal action 28 DAT against Phalaris minor,15 g a.i./ha,60%
same,Herbicidal action 28 DAT against Polygonum convolvulus,15 g a.i./ha,70%
same,Herbicidal action 28 DAT against Polygonum convulvulus,15 g a.i./ha,93%
same,Herbicidal action 28 DAT against Viola tricolor,15 g a.i./ha,20%
same,Herbicidal action against Echinochloa crus-galli,"28 DAT, g a.i./ha: r22 270, r23 90, r24 30, r25 5, r26 1.67",15%
same,Herbicidal action against Eleusine indica,"28 DAT, g a.i./ha: r62 270, r63 30, r64 15, r65 5",40%
same,Herbicidal action against Polygonum convulvulus,"28 DAT, g a.i./ha: r137 270, r138 90, r139 30, r140 5",50%
same,Herbicidal action against Alopecurus myosuroides (resistant biotype),"28 DAT, g a.i./ha: r165 15, r166 90, r167 30",60%
same,Herbicidal action against Lolium rigidum (resistant bio type),"28 DAT, g a.i./ha: r220 15, r221 5, r222 270, r223 90",0%
same,Herbicidal action against Veronica hederifolia,"28 DAT, g a.i./ha: r294 5, r295 90",0%
same,Herbicidal action 28 DAT against Euphorbia heterophylla,45 g a.i./ha,35%
same,Herbicidal action 28 DAT against Galium aparine,45 g a.i./ha,50%
same,Herbicidal action 28 DAT against Ipomoea purpurea,45 g a.i./ha,10%
same,Herbicidal action 28 DAT [%] against Digitaria sanguinalis,"post-emergence, single active compound (Glyphosate series), g a.i./ha: r765 50, r767 15",30%
same,Herbicidal action 28 DAT [%] against Setaria viridis,"post-emergence, single active compound (Glyphosate series), g a.i./ha: r786 450, r788 1.67",10%
same,Herbicidal action 28 DAT [%] against Abutilon theophrasti,"post-emergence, single active compound (Glyphosate series), g a.i./ha: r796 450, r798 5",0%
same,Herbicidal action 28 DAT [%] against Echinochloa crus-galli,"post-emergence, single active compound, g a.i./ha: r19 150, r20 50, r21 5",15%
same,Herbicidal action 28 DAT [%] against Bromus sterilis,"post-emergence, single active compound, g a.i./ha: r172 5, r173 1.67, r174 450",0%
same,Herbicidal action 28 DAT [%] against Galium aparine,"post-emergence, single active compound, g a.i./ha: r183 5, r184 50",0%
same,Herbicidal action 28 DAT [%] against Lamium purpureum,"post-emergence, single active compound, g a.i./ha: r204 45, r205 50",70%
same,Herbicidal action 28 DAT [%] against Lolium rigidum (sensitive biotype),"post-emergence, single active compound, g a.i./ha: r214 15, r215 150, r216 50",0%
same,Herbicidal action 28 DAT [%] against Lolium rigidum (resistant biotype),"post-emergence, single active compound, g a.i./ha: r224 15, r225 5, r226 150, r227 50",0%
same,Herbicidal action 28 DAT [%] against Papaverrhoeas,"post-emergence, single active compound, g a.i./ha: r235 5, r236 450, r237 50",40%
same,Herbicidal action 28 DAT [%] against Raphanus raphanistrum,"post-emergence, single active compound, g a.i./ha: r282 5, r283 150, r284 50",80%
same,Herbicidal action 28 DAT [%] against Veronica hederifolia,"post-emergence, single active compound, g a.i./ha: r292 5, r293 150",0%
"C[C@]1(C(=O)N[C@H]2CO[C@@H](C(=O)NS(C)(=O)=O)C2)CC(c2cc(F)cc(F)c2)=NO1 (relative stereo) [Compound A2, (5R)-3-(3,5-difluorophenyl)-5-methyl-N-[rel-(3R,5R)-5-(methylsulfonylcarbamoyl)tetrahydrofuran-3-yl]-4H-isoxazole-5-carboxamide]",Herbicidal action 28 DAT against Brachiaria platyphylla,1.7 g a.i./ha,0%
same,Herbicidal action 28 DAT against Digitaria sanguinalis,1.7 g a.i./ha,0%
same,Herbicidal action 28 DAT against Echinochloa crus-galli,1.7 g a.i./ha,10%
same,Herbicidal action 28 DAT against Eleusine indica,1.7 g a.i./ha,30%
same,Herbicidal action 28 DAT against Sorghum halepense,1.7 g a.i./ha,0%
same,Herbicidal action 28 DAT against Amaranthus palmeri (res.),5 g a.i./ha,15%
same,Herbicidal action 28 DAT against Digitaria sanguinalis,5 g a.i./ha,0%
same,Herbicidal action 28 DAT against Echinochloa crus-galli,5 g a.i./ha,20%
same,Herbicidal action 28 DAT against Eleusine indica,5 g a.i./ha,35%
same,Herbicidal action 28 DAT against Kochia scoparia,5 g a.i./ha,20%
same,Herbicidal action 28 DAT against Pharbitis purpurea,5 g a.i./ha,75%
same,Herbicidal action 28 DAT against Polygonum convolvulus,5 g a.i./ha,80%
same,Herbicidal action 28 DAT against Sorghum halepense,5 g a.i./ha,0%
same,Herbicidal action 28 DAT against Amaranthus palmeri (res.),15 g a.i./ha,65%
same,Herbicidal action 28 DAT against Eleusine indica,15 g a.i./ha,45%
same,Herbicidal action 28 DAT against Kochia scoparia,15 g a.i./ha,20%
same,Herbicidal action 28 DAT against Sorghum halepense,15 g a.i./ha,15%
same,Herbicidal action against Abutilon theophrasti,"(Z32) 28 DAT, g a.i./ha: r315 270, r316 90, r317 30, r318 15",20%
same,Herbicidal action against Bidens pilosa,"(Z32) 28 DAT, g a.i./ha: r337 270, r338 90, r339 30, r340 15",10%
same,Herbicidal action against Digitaria sanguinalis,"(Z32) 28 DAT, g a.i./ha: r361 270, r362 90, r363 30, r364 15",10%
same,Herbicidal action against Echinochloa crus-galli,"(Z32) 28 DAT, g a.i./ha: r372 270, r373 90, r374 30, r375 5",20%
same,Herbicidal action against Kochia scoparia,"(Z32) 28 DAT, g a.i./ha: r396 270, r397 90, r398 15, r399 5",20%
same,Herbicidal action against Pharbitis purpurea,"(Z32) 28 DAT, g a.i./ha: r408 270, r409 90, r410 30, r411 5",75%
same,Herbicidal action against Polygonum convolvulus,"(Z32) 28 DAT, g a.i./ha: r419 90, r420 30, r421 5",80%
same,Herbicidal action 28 DAT [%] against Digitaria sanguinalis,"post-emergence, single active compound (A2 series), g a.i./ha: r326 150, r327 50, r328 5, r329 1.7",0%
same,Herbicidal action 28 DAT [%] against Eleusine indica,"post-emergence, single active compound (A2 series), g a.i./ha: r337 150, r339 5",35%
same,Herbicidal action 28 DAT [%] against Kochia scoparia,"post-emergence, single active compound (A2 series), g a.i./ha: r347 50, r349 5",20%
same,Herbicidal action 28 DAT [%] against Polygonum convulvulus,"post-emergence, single active compound (A2 series), g a.i./ha: r357 50, r359 5",80%
"C=C[C@]1(C(=O)N[C@H]2CO[C@@H](C(=O)NOC)C2)CC(c2cc(C)cc(F)c2)=NO1 (relative stereo) [Compound A3, (5S)-3-(3-fluoro-5-methylphenyl)-N-[rel-(3R,5R)-5-(methoxycarbamoyl)tetrahydrofuran-3-yl]-5-vinyl-4H-isoxazole-5-carboxamide]",Herbicidal action 28 DAT against Amaranthus palmeri (res.),15 g a.i./ha,10%
same,Herbicidal action 28 DAT against Amaranthus palmeri (res.),45 g a.i./ha,20%
same,Herbicidal action 28 DAT against Kochia scoparia,45 g a.i./ha,20%
same,Herbicidal action against Abutilon theophrasti,"Z61 28 DAT, g a.i./ha: r459 30, r460 15",10%
same,Herbicidal action against Amaranthus palmeri (res.),"Z61 28 DAT, g a.i./ha: r467 90, r468 30, r469 15, r470 5",10%
same,Herbicidal action against Brachiaria platyphylla,"Z61 28 DAT, g a.i./ha: r479 30, r480 1.7",10%
same,Herbicidal action against Eleusine indica,"Z61 28 DAT, g a.i./ha: r487 270, r488 5",70%
same,Herbicidal action 28 DAT [%] against Pharbitis purpurea,"post-emergence, single active compound, g a.i./ha: r396 50, r398 5",70%
